According to patent US8530636B2, “Method for regulating protein function in cells in vivo using synthetic small molecules” (priority 2008, dated 2013):
Entries after “also recorded” stand apart in the source; their conditions may differ.

How the values were obtained:
[1] = cited from earlier work
L-L106P-IL-2 [2] = biological target: T1, L-L106P-IL-2 (Homo sapiens, UniProt P60568); assay: IL-2 in tumor and serum of xenografted mice, ELISA; format: in vivo, CD1 nu-/nu-mice; settings: 48 hr after start
T1 construct: IL-2 signal peptide (L), human IL-2 (N); expressed in transfected cells; in culture (A11) or as xenograft in CD1 nu-/nu- mice (A13)
T1 sequence (P60568 with tags, fused parts or gaps): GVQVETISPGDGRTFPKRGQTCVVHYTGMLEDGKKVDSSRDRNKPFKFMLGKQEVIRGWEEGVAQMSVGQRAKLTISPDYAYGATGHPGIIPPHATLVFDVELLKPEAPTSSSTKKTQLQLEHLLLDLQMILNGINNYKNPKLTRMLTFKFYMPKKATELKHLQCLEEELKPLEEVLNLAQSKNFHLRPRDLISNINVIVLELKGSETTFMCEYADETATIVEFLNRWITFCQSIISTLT
Experimental: (§1) FIGS. 22A-22D show graphs relating to the conditional stabilization of a secreted immunomodulatory protein leads. […] Data are represented as the average IL-2 concentration ±SEM (n=3). […] Tumor volume was determined by caliper measurement and monitored over time. Data are represented as the average tumor volume ±SEM (n=5).
Analysis of IL-2 levels within the tumors of treated and untreated mice confirmed dose-dependent production of IL-2 at the tumor site in mice treated at 5 or 10 mg/kg Shield1 (FIG. 22C; p=0.032). […] A dose of 5 mg/kg Shield1 was sufficient to produce the same robust anti-tumor response as 10 mg/kg Shield1, while avoiding the increase in IL-2 serum levels associated with the higher ligand dose.
(§2) SCID or CD1 nu-/nu-mice (Charles River Co.) received subcutaneous dorsal injections of ˜1×10^7 cells, and tumors were allowed to establish as indicated. Animals were given an intraperitoneal injection of luciferin (225 mg/kg), anesthetized (2% isoflurane), and placed on the warmed stage (37° C.) of an IVIS 100 or IVIS 200 (Xenogen Product from Caliper Life Sciences) for imaging. Light produced was measured as photons/sec for designated regions of interest as described. Tumor volumes were also determined by caliper measurement, and mice were sacrificed when tumors reached 1.44 cm^3 for survival assays. In some experiments, serum samples were collected by retino-orbital bleedings and tumors collected post-mortem and homogenized for ELISA assay of cytokines. All experiments were run with institutional IACUC approval.

FKBP F36V variant = FKBP F36V variant (Homo sapiens, UniProt P62942, F37V); settings: Clackson et al. 1998; cited from earlier work
Sequence of FKBP F36V variant (P62942 2-108 F37V limits assumed): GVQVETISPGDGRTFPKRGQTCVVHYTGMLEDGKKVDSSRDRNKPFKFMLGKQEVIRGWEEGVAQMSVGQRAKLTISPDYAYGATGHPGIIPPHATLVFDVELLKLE

FKBP L106P-YFP fusion = biological target: T2, FKBP L106P-YFP fusion (Homo sapiens, UniProt P62942, F37V); assay: Shield1 dose-response of FKBP-YFP fluorescence, flow cytometry; format: cell-based
T2 construct: expressed in transfected cells
T2 sequence (P62942 with tags, fused parts or gaps F37V): as the sequence (P62942 2-108 F37V limits assumed) above, with L106P counted along it
Experimental: (§3) Experiments were performed in triplicate.

[3] = biological target: T3, FKBP variant V24A-YFP fusion protein (Homo sapiens, UniProt P62942, F37V/V25A); assay: as above; format: cell-based; settings: NIH3T3 cells stably expressing V24A FKBP-YFP
T3 construct: expressed in transfected cells; host or cells: NIH3T3 (retroviral transduction)
T3 sequence (P62942 2-108 V25A/F37V): as the sequence (P62942 2-108 F37V limits assumed) above, with V24A counted along it
Experimental: as §3

[4] = tested on: HCT116 L-L106P-IL-2 tumors; format: in vivo
Experimental: FIGS. 22A-22D show graphs relating to the conditional stabilization of a secreted immunomodulatory protein leads. […]. Data are represented as the average IL-2 concentration ±SEM (n=3). […]. Tumor volume was determined by caliper measurement and monitored over time. Data are represented as the average tumor volume ±SEM (n=5).
[…]. Tumors in the untreated control animals continued to increase in size over the course of the experiment. […].
as §2

FKBP-YFP fusion proteins [5] = assay: Kinetics of FKBP-YFP fluorescence upon addition of Shield1
FKBP-YFP fusion proteins [6] = biological target: FKBP-YFP fusion proteins (Homo sapiens, UniProt P62942, F37V); assay: as above; settings: L106P-YFP, various concentrations of Shield1
Sequence of FKBP-YFP fusion proteins (Homo sapiens, UniProt P62942, F37V) (P62942 with tags, fused parts or gaps F37V): as the sequence (P62942 2-108 F37V limits assumed) above, with L106P counted along it

L106P-tsLuc = biological target: T4, L106P-tsLuc (Homo sapiens, UniProt P62942, F37V); assay: In vivo bioluminescence imaging of HCT116 L106P-luciferase xenografts; parameters: species or system SCID mice
T4 construct: expressed in transfected cells
T4 sequence (P62942 with tags, fused parts or gaps F37V): as the sequence (P62942 2-108 F37V limits assumed) above, with L106P counted along it

[7] = mouse, in vivo
vvDD = format: cell-based, vaccinia virus
L-L106P-IL-2 [8] = biological target: T1, L-L106P-IL-2; assay: IL-2 secreted by HCT116 L-L106P-IL-2 cells, ELISA of culture media; format: cell-based; settings: dose-dependent on Shield1 in the media
Experimental: as §1
Interleukin-2 (IL-2) is a cytokine that is instrumental in immune response, inducing the differentiation and proliferation of a variety of lymphocyte populations (Gaffen, S. L. and Liu, K. D. (2004) Cytokine 28:109-23). Recombinant IL-2 is approved for clinical treatment of renal cancers and is used in a variety of other cancer therapies. Polynucleotides encoding the L106P stability-affecting protein were inserted between polynucleotides of the IL-2 gene that encode the signal peptide and the remainder of the IL-2 protein to produce the chimeric gene, L-L106P-IL-2, which was stably introduced into HCT116 cells. […]
Thermostable luciferase or the human IL-2 gene were cloned into pBMN L106P iBlasticidin and used to generate amphotropic retrovirus (Banaszynski, L. A. et al. (2006) Cell. 126:995-1004). […] Cells grown in 96-well plates (2×10^4 cells/well) were treated with Shield1 as indicated and either bioluminescence measured using an IVIS 50 (Xenogen Product from Caliper Life Sciences) following luciferin addition (300 μg/mL), or media collected for ELISA.

HCT116 tumors = assay: vvDD L-L106P-IL-2 in mice bearing HCT116 tumors

C20-methallylrapamycin [MaRap]
Pharmacokinetic properties in vivo [1]: poor pharmacokinetic properties in vivo

1-[2-(3,4,5-trimethoxy-phenyl)-butyryl]-piperazine-2-carboxylic acid 3-(3,4-dimethoxy-phenyl)-1-[3-(2-morpholin-4-yl-ethoxy)-phenyl]-propyl ester [Shield1]
IL-2 per gram tumor tissue (L-L106P-IL-2 [2]; 5 mg/kg): more IL-2 than tumors from untreated mice | Serum IL-2 levels (L-L106P-IL-2 [2]; 5 mg/kg): did not produce any increase in serum IL-2 levels | IL-2 per gram tumor tissue (L-L106P-IL-2 [2]; 10 mg/kg): significantly higher levels of IL-2 than tumors from mice treated at 5 mg/kg | Serum IL-2 levels (L-L106P-IL-2 [2]; 10 mg/kg): significantly higher levels of serum IL-2; also recorded: significantly elevated levels | Binding tighter to the F36V variant compared to wild-type FKBP (FKBP F36V variant): about 1,000 fold | Stabilization of FKBP L106P-YFP fusion protein (FKBP L106P-YFP fusion; 1 μM Shield1): fully stabilized | EC50 (FKBP L106P-YFP fusion; NIH3T3 cells stably expressing L106P-YFP, read-out: EC50 of Shield1 to stabilize the YFP fusion protein): ~0.1 µM | EC50 [3]: ~0.005 µM | Tumor establishment ([4]; cells pretreated with Shield1, then 10 mg/kg every 48 hours): Tumors failed to establish | Tumor burden relative to untreated animals ([4]; day 16, all Shield1-treated groups): significantly reduced tumor burden | Tumor size ([4]; i.p. 5 or 10 mg/kg every 48 hours from five days after implantation): tumor regression | Time of maximum fluorescence after addition of Shield1 (FKBP-YFP fusion proteins [5]; NIH3T3 cells, FKBP-YFP variants): 24 h | Time fluorescence is stably maintained without further addition of Shield1 (FKBP-YFP fusion proteins [5]; after the maximum at 24 hours): ≥ 48 h | Time until YFP expression is observed (FKBP-YFP fusion proteins [6]): ≤ 15 min | Time for bioluminescent signals to return to background (L106P-tsLuc; 10 mg/kg ip): ≤ 48 h | Increase in bioluminescent signal in the presence compared to the absence of Shield1 (L106P-tsLuc; 10 mg/kg ip, FIG. 21B): ~10 fold | Time of maximum expression levels following treatment (L106P-tsLuc; 10 mg/kg ip, L106P-tsLuc, FIG. 21A): 12 h | Bioluminescence under periodic treatment (L106P-tsLuc; 10 mg/kg once every 48 hours): maintain increased bioluminescence levels over the course of several weeks | Bioluminescence with increasing doses (L106P-tsLuc; 3, 6, or 10 mg/kg): increasing bioluminescence levels | Time of peak luminescence following a single injection of ligand (L106P-tsLuc; FIG. 7A, luciferase fused to FKBP F36V/L106P): about 10 hours | Feeding behavior, body weight, overall activity [7]: did not appear to affect feeding behavior, body weight, or overall activity | Replication of the virus (vvDD): did not affect the replication of the virus | Dynamic range of secreted IL-2 (L-L106P-IL-2 [8]): approximately 25 fold | Treg infiltration into tumor (HCT116 tumors; delayed clearance of virus): increase in Treg infiltration | Survival of treated animals (HCT116 tumors; no Shield1 during the first 72 hours after vvDD L-L106P-IL-2): greater percent survival of the treated animals
